Assay results from US9593096B2, “α7 nicotinic acetylcholine receptor modulators and uses thereof-III” (Merck Sharp & Dohme Corp., priority 2013, dated 2017).

Columns and labels:
rat α7 nAChRs = molecular target: T1, rat α7 nAChRs (Rattus norvegicus, UniProt Q05941); test: Automated planar patch clamp (Patchliner) for α7 nAChR positive allosteric modulation; assay type: cell-based; parameters: key to Type I or Type II: I: Type 1 predominately affects the peak current; Type II modulators affect the peak current and also delay the desensitization of the receptor; settings: for activation at 3 µM: GH4-C1, 3 μM compound in the presence of acetylcholine, GH4C1 cells expressing rat α7 nAChRs, relative to control ACh response, read-out: Peak potentiation at 3 μM compound; for Type I or Type II: modulator type based on the electrophysiology trace
T1 construct: expressed in transfected cells; host or cells: GH4C1 (rat pituitary cell line) stably expressing α7 nAChR
Experimental: Compounds of the invention may be evaluated by electrophysiology using a Patchliner® (Nanion Technologies GmbH, Germany), an automated planar patch-clamp platform of medium throughput was used as a first step in electrophysiological assessment of α7 nAChR positive allosteric modulators (PAMs).
Briefly, intracellular (KCl—50 mM, NaCl—10 mM, KF—60 mM, EGTA—20 mM, HEPES—10 mM, pH—7.2, 285 mOsmol) and extracellular (NaCl—140 mM, KCl—4 mM, CaCl2-2 mM, MgCl2—1 mM, HEPES—10 mM, D-Glucose—5 mM, pH—7.4, 298 mOsmol) solutions were automatically pipetted onto NPC-16 chip (medium resistance ˜2.5-2.6 MΩ). Suspension of GH4C1 cells expressing rat α7 nAChRs was introduced in 4 wells of a medium resistance chip and suction was applied to attract cells in the holes. The extracellular solution was subsequently exchanged to high calcium solution (NaCl—80 mM, KCl—3 mM, CaCl2—45 mM, HEPES—10 mM, pH—7.4, 298 mOsmol) followed by gigaohm seal formation and obtaining whole-cell configuration. The rest of protocol was carried out in the high-calcium recording solution. Holding potential was −70 mV throughout the protocol. A control response to 60 or 100 μM of ACh was obtained first. Next, a cell was pre-incubated with compound of interest at 3 μM for ˜30 s after which the compound was co-applied with acetylcholine.
Amplitude of the responses was measured in HEKA Patchmaster software (HEKA Elektronik, Germany) and percentage of potentiation calculated. Recording was repeated […] a minimum of two replicates had been obtained per compound.
Compounds shown in Table 1 were evaluated by automated planar patch clamp on the Patchliner® as described in Example P2.1. […] The compounds are designated either as Type I or Type II modulators based on the electrophysiology trace. Type 1 predominately affects the peak current. Type II modulators affect the peak current and also delay the desensitization of the receptor.

mice = test: T-maze Continuous Alternation Task (T-CAT), scopolamine-induced cognitive impairment; assay type: in vivo; settings: mouse, dosed orally at 10 mg/kg, scopolamine-induced disruption of spontaneous alternation
Description: The T-maze Continuous Alternation Task (T-CAT) measures spontaneous alternation, which is the innate tendency of mice to alternate free choices in a T-maze over a series of successive runs. This sequential procedure relies on working memory and is sensitive to various pharmacological manipulations affecting memory processes.
The T-maze apparatus is made of gray Plexiglas with a main stem (55 cm long×10 cm wide×25 cm high) and two arms (30 cm long×10 cm wide×25 cm high) positioned at 90 degree angle relative to the main stem. A start box (15 cm long×10 cm wide) is separated from the main stem by a sliding door. Sliding doors are also provided to close specific arms during the forced-choice alternation task.
The experimental protocol consists of one single session, which starts with 1 “forced-choice” trial, followed by 14 “free-choice” trials. In the first “forced-choice” trial, the animal is confined for 5 s in the start arm and then it is released while either the left or right goal arm is blocked by a sliding door. The animal will negotiate the maze, eventually enter the open goal arm, and return to the start position. Immediately after the return to the start position, the left or right goal door is opened and the animal is allowed to choose freely between the left and right goal arm (“free choice” trials). The animal is considered to have entered an arm when it places four paws in the arm. A session is terminated and the animal is removed from the maze as soon as 14 free-choice trials have been performed or 10 minutes have elapsed, whichever event occurs first. The percentage of alternation over the 14 free-choice trials is determined for each mouse and is used as an index of working memory performance. This percentage is defined as entry in a different arm of the T-maze over successive visits (i.e., left-right-left-right, etc).
Scopolamine administered 20 minutes prior the initiation of the T-maze session is used to induce disruption in the spontaneous alternation of mice. Test compounds are administered 60 minutes prior the start of the T-maze session in order to evaluate their ability to reverse the scopolamine effect.
The apparatus is cleaned between each animal using alcohol (70°). Urine and faeces are removed from the maze. During the trials, animal handling and the visibility of the operator are minimized as much as possible.
The compounds were dosed orally at 10 mg/kg.

T1 sequence (Q05941 23-502): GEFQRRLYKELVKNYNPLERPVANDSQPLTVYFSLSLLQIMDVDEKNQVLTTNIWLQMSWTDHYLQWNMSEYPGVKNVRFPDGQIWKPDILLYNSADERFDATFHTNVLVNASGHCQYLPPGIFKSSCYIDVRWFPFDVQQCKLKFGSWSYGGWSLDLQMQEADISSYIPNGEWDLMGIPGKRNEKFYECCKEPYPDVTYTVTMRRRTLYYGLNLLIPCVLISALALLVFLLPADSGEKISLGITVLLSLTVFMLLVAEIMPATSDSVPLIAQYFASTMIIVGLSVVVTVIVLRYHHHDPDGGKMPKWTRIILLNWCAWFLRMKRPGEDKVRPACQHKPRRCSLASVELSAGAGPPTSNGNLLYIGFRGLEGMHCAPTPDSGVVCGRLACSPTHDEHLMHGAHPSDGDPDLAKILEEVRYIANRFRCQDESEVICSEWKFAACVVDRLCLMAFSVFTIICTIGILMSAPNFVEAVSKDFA

Cc1ccc2c(c1)c(C(=O)Nc1ccnc(C(F)(F)F)c1)cn2C [Example 7, 1,5-dimethyl-N-[2-(trifluoromethyl)pyridin-4-yl]-1H-indole-3-carboxamide]
activation at 3 µM (rat α7 nAChRs): 663%
Type I or Type II (rat α7 nAChRs): I
T-maze % control at 10 mg/kg (mice): 80%

CCn1cc(C(=O)Nc2ccnc(C(F)(F)F)n2)c2cc(F)ccc21 [Example 4, 1-ethyl-5-fluoro-N-[2-(trifluoromethyl)pyrimidin-4-yl]-1H-indole-3-carboxamide]
activation at 3 µM (rat α7 nAChRs): 30%
Type I or Type II (rat α7 nAChRs): I

CCn1cc(C(=O)Nc2cncc(F)c2)c2cc(F)ccc21 [Example 1, 1-ethyl-5-fluoro-N-(5-fluoropyridin-3-yl)-1H-indole-3-carboxamide]
Type I or Type II (rat α7 nAChRs): I
T-maze % control at 10 mg/kg (mice): 70%

CC(C)n1cc(C(=O)Nc2cncc(F)c2)c2cc(F)ccc21 [Example 6, 5-fluoro-N-(5-fluoropyridin-3-yl)-1-(propan-2-yl)-1H-indole-3-carboxamide]
activation at 3 µM (rat α7 nAChRs): 374%
Type I or Type II (rat α7 nAChRs): I

O=C(Nc1ccnc(C(F)(F)F)c1)c1cn(CCO)c2ccc(F)cc12 [Example 12, 5-fluoro-1-(2-hydroxyethyl)-N-[2-(trifluoromethyl)pyridin-4-yl]-1H-indole-3-carboxamide]
activation at 3 µM (rat α7 nAChRs): 257%
Type I or Type II (rat α7 nAChRs): I

CCn1cc(C(=O)Nc2cc(C(F)(F)F)ncn2)c2cc(F)ccc21 [Example 2, 1-ethyl-5-fluoro-N-[6-(trifluoromethyl)pyrimidin-4-yl]-1H-indole-3-carboxamide]
Type I or Type II (rat α7 nAChRs): I
T-maze % control at 10 mg/kg (mice): 76%

Cn1cc(C(=O)Nc2cncc(F)c2)c2cc(C(F)(F)F)ccc21 [Example 10, N-(5-fluoropyridin-3-yl)-1-methyl-5-(trifluoromethyl)-1H-indole-3-carboxamide]
activation at 3 µM (rat α7 nAChRs): 41%
Type I or Type II (rat α7 nAChRs): I

Cn1cc(C(=O)Nc2ccnc(C(F)(F)F)c2)c2cc(F)ccc21 [Example 5, 5-fluoro-1-methyl-N-[2-(trifluoromethyl)pyridin-4-yl]-1H-indole-3-carboxamide]
activation at 3 µM (rat α7 nAChRs): 326%
Type I or Type II (rat α7 nAChRs): I
T-maze % control at 10 mg/kg (mice): 78%

Cn1cc(-c2ccc3c(c2)c(C(=O)Nc2ccnc(C(F)(F)F)c2)cn3C)cn1 [Example 11, 1-methyl-5-(1-methyl-1H-pyrazol-4-yl)-N-[2-(trifluoromethyl)pyridin-4-yl]-1H-indole-3-carboxamide]
activation at 3 µM (rat α7 nAChRs): 78%
Type I or Type II (rat α7 nAChRs): I

Cc1ccc2c(c1)c(C(=O)Nc1cc(C(F)(F)F)ncn1)cn2C [Example 8, 1,5-dimethyl-N-[6-(trifluoromethyl)pyrimidin-4-yl]-1H-indole-3-carboxamide]
activation at 3 µM (rat α7 nAChRs): 428%
Type I or Type II (rat α7 nAChRs): I

Cn1cc(C(=O)Nc2ccnc(C(F)(F)F)c2)c2cc(C(F)(F)F)ccc21 [Example 9, 1-methyl-5-(trifluoromethyl)-N-[2-(trifluoromethyl)pyridin-4-yl]-1H-indole-3-carboxamide]
activation at 3 µM (rat α7 nAChRs): 83%
Type I or Type II (rat α7 nAChRs): I

CCn1cc(C(=O)Nc2ccc(C(F)(F)F)nc2)c2cc(F)ccc21 [Example 3, 1-ethyl-5-fluoro-N-[6-(trifluoromethyl)pyridin-3-yl]-1H-indole-3-carboxamide]
T-maze % control at 10 mg/kg (mice): 73%
